Publication PMC11603275, “Synthesis and Antimicrobial Evaluation of New 1,2,4-Triazolo[1,5-a]pyrimidine-Based Derivatives as Dual Inhibitors of Bacterial DNA Gyrase and DHFR” (ACS Omega, 2024)
In brackets after ≈: the same amount, converted by molar mass. Like-named read-outs stand apart in the source and are kept apart here.

Key:
[1] = test system: E. coli; experiment: Minimum bactericidal concentration (MBC) assay; format: cell-based, Escherichia coli
Source text: (§1) The MBC differs from the MIC. […] Unlike the MBC, which leads to mortality, the MIC hinders bacterial growth without causing death.[41] The common expression for MBC is MBC50, signifying the antibiotic concentration that eliminates 50% of the initial bacterial population.[42]

[2] = target: T1, E. coli DNA gyrase (Escherichia coli, UniProt P0AES6); experiment: DNA gyrase inhibitory (supercoiling) assay; format: biochemical
T1 construct: purchased Inspiralis
Experimental: (§5) IC50 values were determined using seven different inhibitor concentrations and then calculated using the GraphPad Prism 6.0 software.
All the final compounds were tested for E. coli DNA gyrase inhibitory activity in a supercoiling assay. Activities were determined on streptavidin-coated 96-well microtiter plates from Thermo scientific Pierce. […] After washing off the unbound oligonucleotide, the enzyme test was performed. […] After that, the TF buffer (50 mM NaOAc with pH 5.0, 50 mM NaCl and 50 mM MgCl2) was added to terminate the enzymatic reaction. After additional incubation for 30 min at rt, during which biotin-oligonucleotide-plasmid triplex was formed, the unbound plasmid was washed off using TF buffer and SybrGOLD in T10 buffer (10 mM Tris HCl with pH 8.0 and 1 mM EDTA) was added. […] Initial screening was done at 100 or 10 μM concentration of inhibitors. […] GraphPad Prism software was used to calculate the IC50 values. The result is given as the average value of three independent measurements.

[3] = test system: S. aureus; experiment: MIC assay, 2-fold serial dilution in 96-well microtiter plate; format: cell-based, Staphylococcus aureus (ATCC 12600)
Experimental: (§2) The outcomes of this in vitro assay test align with the results of the antimicrobial sensitivity test.
(§3) Appendix A (Supplementary File) provides experimental details.
(§4) In 96-well microtiter plates and […] of fresh bacterial culture of a single McFarland unit overnight, a double serial dilution of each compound […] in sterile standard saline were prepared to every single source well. […] The plates were incubated at 37 °C overnight. As an indicator of bacterial growth, […] of p-iodonitrotetrazolium violet (INT) was added to each well and incubated at 37 °C for 30 min. […] The colorless tetrazolidium salt acts as an electron accepter and is reduced to a red colored formazan product by biological activity organisms. Where bacterial growth was inhibited, the solution in the well remained clear after incubation with INT.

[4] = test system: B. subtilis; experiment: as above; format: cell-based, Bacillus subtilis (ATCC 6051)
Experimental: as §2, §3, §4

[5] = test system: B. subtilis; experiment: Minimum bactericidal concentration (MBC) assay; format: cell-based, Bacillus subtilis
Source text: as §1

[6] = test system: B. subtilis; experiment: Modified disk diffusion, inhibition zone; details: B. subtilis (G+)
[7] = test system: E. coli; experiment: MIC assay, 2-fold serial dilution in 96-well microtiter plate; format: cell-based, Escherichia coli (ATCC 11775)
Experimental: as §2, §3, §4

[8] = test system: C. albicans; experiment: Antifungal MIC assay, 2-fold serial dilution; format: cell-based, Candida albicans
[9] = test system: S. aureus; experiment: Minimum bactericidal concentration (MBC) assay; format: cell-based, Staphylococcus aureus
Source text: as §1

[10] = test system: Gram-positive and Gram-negative bacteria (B. subtilis, S. aureus, E. coli, P. aeruginosa); experiment: Disk diffusion, inhibition zones summarised over the tested bacterial strains; details: over the four tested bacterial strains
[11] = test system: E. coli; experiment: Modified disk diffusion, inhibition zone; details: E. coli (G-)
[12] = target: T2, DHFR E. coli (Escherichia coli, UniProt P0ABQ4); experiment: DHFR inhibitory assay; format: biochemical
T2 construct: purchased Inspiralis
T2 sequence (P0ABQ4 whole entry): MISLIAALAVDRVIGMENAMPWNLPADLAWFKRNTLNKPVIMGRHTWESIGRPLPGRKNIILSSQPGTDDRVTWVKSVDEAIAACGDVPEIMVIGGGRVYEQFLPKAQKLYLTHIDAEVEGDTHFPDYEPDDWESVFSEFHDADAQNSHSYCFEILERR
Experimental: as §5

[13] = test system: P. aeruginosa; experiment: Modified disk diffusion, inhibition zone; details: P. aeruginosa (G-)
[14] = test system: A. flavus; experiment: Modified disk diffusion, inhibition zone; details: A. flavus (fungi)
[15] = test system: P. aeruginosa; experiment: Minimum bactericidal concentration (MBC) assay; format: cell-based, Pseudomonas aeuroginosa
Source text: as §1

[16] = test system: C. albicans; experiment: Modified disk diffusion, inhibition zone; details: C. albicans (fungi)
[17] = test system: S. aureus; experiment: Modified disk diffusion, inhibition zone; details: S. aureus (G+)
[18] = test system: A. flavus; experiment: Antifungal MIC assay, 2-fold serial dilution; format: cell-based, Aspergillus flavus
[19] = test system: P. aeruginosa; experiment: MIC assay, 2-fold serial dilution in 96-well microtiter plate; format: cell-based, Pseudomonas aeuroginosa (ATCC 10145)
Experimental: as §2, §3, §4

[20] = test system: A. flavus and C. albicans; experiment: Disk diffusion, inhibition zones summarised over the fungal species; details: against A. flavus and C. albicans
[21] = test system: tested fungal species; experiment: MIC summarised over the tested fungal species (abstract); format: cell-based; details: range over tested fungal species
[22] = target: DNA, Gram-negative strains; set-up: method as in ref 29 = [29]; Ghaly M. A.; El-Bendary E. R.; Shehata I. A.; Bayomi S. M.; Habib E. Synthesis, antimicrobial activity, DNA-binding affinity and molecular docking of certain 1, 2, 4-triazolo [1, 5-a] pyrimidines; details: cited from earlier work
[23] = target: DNA, Gram-positive strains; set-up: method as in ref 29 = [29]; Ghaly M. A.; El-Bendary E. R.; Shehata I. A.; Bayomi S. M.; Habib E. Synthesis, antimicrobial activity, DNA-binding affinity and molecular docking of certain 1, 2, 4-triazolo [1, 5-a] pyrimidines; details: cited from earlier work
[24] = test system: Gram-positive and Gram-negative bacterial strains; set-up: method as in ref 29 = [29]; Ghaly M. A.; El-Bendary E. R.; Shehata I. A.; Bayomi S. M.; Habib E. Synthesis, antimicrobial activity, DNA-binding affinity and molecular docking of certain 1, 2, 4-triazolo [1, 5-a] pyrimidines; details: cited from earlier work
[25] = target: S. aureus topoisomerase IV; set-up: method as in ref 44 (a number printed in a supplementary file, which may have a reference list of its own: not looked up in the article's list); details: internal standard value given in the method; cited from earlier work
[26] = Escherichia coli, read-out: MBC
[27] = Staphylococcus aureus, read-out: MIC
[28] = Bacillus subtilis, read-out: MIC
[29] = Bacillus subtilis, read-out: MBC
[30] = Escherichia coli, read-out: MIC
[31] = Candida albicans, read-out: MIC
[32] = Staphylococcus aureus, read-out: MBC
[33] = Pseudomonas aeruginosa, read-out: MBC
[34] = Aspergillus flavus, read-out: MIC
[35] = Pseudomonas aeruginosa, read-out: MIC

Which results are given for COc1ccc(-c2cc(-c3ccc(C)cc3)n3nc(-c4ccccc4)nc3n2)cc1 [Compound 9o, 5-(4-Methoxyphenyl)-2-phenyl-7-p-tolyl-1,2,4-triazolo[1,5-a]pyrimidine]?
MBC [1]: 0.087 ± 0.006 µM (≈ 0.0341 µg/mL); MBC [1, 26]: 0.087 µM (≈ 0.0341 µg/mL); IC50 [2]: 0.182 ± 0.01 µM; MIC [3]: 0.024 ± 0.001 µM (≈ 0.00942 µg/mL); MIC [3, 27]: 0.024 µM (≈ 0.00942 µg/mL); MIC [4]: 0.016 ± 0.001 µM (≈ 0.00628 µg/mL); times less effective than ciprofloxacin (MIC) [4]: 1.6; MIC [4, 28]: 0.016 µM (≈ 0.00628 µg/mL); MBC [5]: 0.032 ± 0.002 µM (≈ 0.0126 µg/mL); folds less potent than ciprofloxacin as a bactericidal agent (MBC) [5]: 1.7; MBC [5, 29]: 0.032 µM (≈ 0.0126 µg/mL); Inhibition Zone (IZ) Diameter [6]: 43 mm/mL; MIC [7]: 0.051 ± 0.003 µM (≈ 0.02 µg/mL); MIC [7, 30]: 0.051 µM (≈ 0.02 µg/mL); MIC [8]: 19.50 ± 1 µM (≈ 7.65 µg/mL); MIC [8, 31]: 19.5 µM (≈ 7.65 µg/mL); MBC [9]: 0.046 ± 0.002 µM (≈ 0.0181 µg/mL); MBC [9, 32]: 0.046 µM (≈ 0.0181 µg/mL); Inhibition Zone (IZ) Diameter [10]: 42–45 mm; Inhibition Zone (IZ) Diameter [11]: 43 mm/mL; IC50 [12]: 3.9 ± 0.1 µM; Inhibition Zone (IZ) Diameter [13]: 42 mm/mL; Inhibition Zone (IZ) Diameter [14]: 35 mm/mL; MBC [15]: 0.084 ± 0.005 µM (≈ 0.033 µg/mL); MBC [15, 33]: 0.084 µM (≈ 0.033 µg/mL); Inhibition Zone (IZ) Diameter [16]: 38 mm; Inhibition Zone (IZ) Diameter [17]: 45; MIC [18]: 15.50 ± 1 µM (≈ 6.08 µg/mL); MIC [18, 34]: 15.5 µM (≈ 6.08 µg/mL); MIC [19]: 0.053 ± 0.004 µM (≈ 0.0208 µg/mL); MIC [19, 35]: 0.053 µM (≈ 0.0208 µg/mL)

Which results are given for COc1ccc(-c2cc(-c3ccc(OC)cc3)n3nc(-c4ccccc4)nc3n2)cc1 [Compound 9p, 5,7-Bis(4-methoxyphenyl)-2-phenyl-1,2,4-triazolo[1,5-a]pyrimidine]?
MBC [1]: 0.097 ± 0.006 µM (≈ 0.0396 µg/mL); MBC [1, 26]: 0.097 µM (≈ 0.0396 µg/mL); IC50 [2]: 0.205 ± 0.013 µM; MIC [3]: 0.037 ± 0.002 µM (≈ 0.0151 µg/mL); MIC [3, 27]: 0.069 µM (≈ 0.0282 µg/mL); MIC [4, 28]: 0.035 ± 0.002 µM (≈ 0.0143 µg/mL); MBC [5, 29]: 0.052 ± 0.003 µM (≈ 0.0212 µg/mL); Inhibition Zone (IZ) Diameter [6]: 38 mm/mL; MIC [7, 30]: 0.069 ± 0.004 µM (≈ 0.0282 µg/mL); MIC [8, 31]: 23.7 ± 1 µM (≈ 9.68 µg/mL); MBC [9, 32]: 0.069 ± 0.003 µM (≈ 0.0282 µg/mL); Inhibition Zone (IZ) Diameter [10]: approximately 38 mm; Inhibition Zone (IZ) Diameter [11]: 37 mm/mL; IC50 [12]: 5.4 ± 0.2 µM; Inhibition Zone (IZ) Diameter [13]: 38 mm/mL; Inhibition Zone (IZ) Diameter [14]: 30 mm/mL; MBC [15]: 0.098 ± 0.006 µM (≈ 0.04 µg/mL); MBC [15, 33]: 0.098 µM (≈ 0.04 µg/mL); Inhibition Zone (IZ) Diameter [16]: 31 mm; Inhibition Zone (IZ) Diameter [17]: 39; MIC [18, 34]: 19.9 ± 1 µM (≈ 8.13 µg/mL); MIC [19]: 0.068 ± 0.005 µM (≈ 0.0278 µg/mL); MIC [19, 35]: 0.068 µM (≈ 0.0278 µg/mL)

For OC(Cn1cncn1)(Cn1cncn1)c1ccc(F)cc1F [Fluconazole, reference compound], which “Inhibition Zone (IZ) Diameter” value [20] is on record?
Its value is 40 mm.

What about the MIC [21] of the same compound?
Its MIC is 11.5 to 17.5 µM (≈ 3.52 to 5.36 µg/mL).

And the MIC [8]?
Its MIC is 17.50 ± 1 µM (≈ 5.36 µg/mL).

And the MIC [8, 31]?
The MIC was 17.5 µM (≈ 5.36 µg/mL).

And the “Inhibition Zone (IZ) Diameter” value [14]?
Its value is 40 mm/mL.

What about the MIC [18] of the same compound?
The MIC was 11.50 ± 1 µM (≈ 3.52 µg/mL).

What about the MIC [18, 34] of the same compound?
The MIC was 11.5 µM (≈ 3.52 µg/mL).

For COc1ccc(CCc2nc3[nH]cc(C(=O)NN)c(=O)n3n2)cc1OC [IIIa], which “IC50, DNA displacement experiment” value [22] is on record?
Its value is 40 µg/mL (≈ 112 µM).

What about the “IC50, DNA displacement experiment” value [23] of the same compound?
The value was 61 µg/mL (≈ 170 µM).

What about the MIC [24] of the same compound?
Its MIC is no less than 2 µg/mL.

Which “IC50, DNA displacement experiment” value [22] does the source give for NNC(=O)c1c[nH]c2nc(N3CCCC3)nn2c1=O [IIIb] here?
The value was 40 µg/mL (≈ 152 µM).

What about the “IC50, DNA displacement experiment” value [23] of the same compound?
The value was 61 µg/mL (≈ 232 µM).

And the MIC [24]?
Its MIC is no less than 2 µg/mL.

Which IC50 [25] does the source give for CO[C@@H]1[C@@H](OC(N)=O)[C@@H](O)[C@H](Oc2ccc3c(O)c(NC(=O)c4ccc(O)c(CC=C(C)C)c4)c(=O)oc3c2C)OC1(C)C [Novobiocin] here?
The IC50 was 26.7 µM.
